Measurements as given in patent US11505815B2, “Compositions and methods related to non-templated enzymatic nucleic acid synthesis” (Nuclera Nucleics Ltd., priority 2017, dated 2022).

Tests used:
[1] = test system: engineered terminal deoxynucleotidyl transferase; test: Enzymatic incorporation of nucleoside 5′-triphosphates with amine-masking moieties onto a DNA primer (denaturing PAGE); format: biochemical; details: 10 minutes at 37° C., buffer containing cobalt chloride, DNA primer with 5′-fluorophore
Procedure: FIG. 11: Enzymatic incorporation of nucleoside 5′-triphosphates with amine-masking moieties. An engineered terminal deoxynucleotidyl transferase was incubated for 10 minutes at 37° C. in an appropriate buffer containing cobalt chloride and a DNA primer with a 5′-fluorophore as well as the following nucleoside 5′-triphosphates: (A) Lane 1: No extension control; Lane 2: N6-benzyl-dATP; Lane 3: N6-benzyl-rATP; Lane 4: N6-methyl-dATP; Lane 5: N6-methyl-rATP; (B) Lane 1: No extension control; Lane 2: 3′-O-acetyl-N4-benzoyl-dCTP; (C) Lane 1: No extension control; Lane 3: N6-benzoyl-dATP; Lane 4: N4-benzoyl-dCTP. Reactions were analyzed by standard denaturing polyacrylamide gel electrophoresis (TBE buffer) and imaged with a fluorescent scanner.

[2] = Deamination time course in sodium nitrite / sodium acetate pH 5.5, analysed by LC-MS; format: physicochemical; details: sodium nitrite (700 mM), pH 5.5 (1 M), room temperature; for Extent of deamination (conversion to oxidative deamination product): LC chromatograms at 260 nm

SMILES	Acceptance as substrate by terminal transferase enzyme in a DNA synthesis process [1]	Deacetylation during incubation with nitrite solution ([2]; 48 hours)	Extent of deamination (conversion to oxidative deamination product) [2]
O=C(Nc1ccn([C@H]2C[C@H](O)[C@@H](COP(=O)(O)OP(=O)(O)OP(=O)(O)O)O2)c(=O)n1)c1ccccc1 [N4-benzoyl 2′-deoxycytidine triphosphate]	accepted as a substrate	–	–
CC(=O)Nc1ncnc2c1ncn2[C@@H]1O[C@H](CO)[C@@H](O)[C@H]1O [N6-acetyl A, N6-acetyl adenosine]	–	minor deacetylation	no deamination product is detected
CC(C)=CCNc1ncnc2nc[nH]c12 [N6-dimethylallylamino purine]	–	–	notable absence of peaks corresponding to dA or dI

Continued, values first:

Acceptance as substrate by terminal transferase enzyme in a DNA synthesis process [1]	Deacetylation during incubation with nitrite solution ([2]; 48 hours)	Extent of deamination (conversion to oxidative deamination product) [2]	SMILES
–	–	occur at an appreciable rate	Nc1ncnc2nc[nH]c12 [adenine, reference compound]
–	–	occur at an appreciable rate	Nc1cc[nH]c(=O)n1 [cytosine, reference compound]
–	–	occur at an appreciable rate	Nc1nc2nc[nH]c2c(=O)[nH]1 [guanine, reference compound]
